In patent US11607454B2, “Devices and processes for Cherenkov-activated nuclear-targeted photodynamic therapy” (UNIVERSITY HEALTH NETWORK, priority 2016, dated 2023):

Assays:
[1] = test system: Pancreatic cells (BxPC-3); assay: phospho-gamma H2AX immunofluorescence assay of DNA damage after 18 MV X-ray irradiation generating Cherenkov light; type: cell-based; details: BxPC-3 cells, 4 micrograms per ml, 6 h incubation, 10 Gy X-ray, read 30 minutes after irradiation, +/- 1 standard deviation
Experimental: Following preparation of the nuclear-targeted copolymer-photosensitizer micelles (NPs) as above, tests were carried out of the effect on pancreatic cancer cells in tissue culture (in vitro) of X-ray irradiation under conditions that generate Cherenkov light. Pancreatic cells (BxPC-3: ATCC, VA, USA) were selected since treatment of pancreatic cancer is one example of how the current invention might be applied to address an unmet clinical need for a minimally invasive therapy for this highly fatal disease where conventional treatments such as radiation or chemotherapy are inadequate.
Cells were incubated with NPs with water as the vehicle. […]
At 30 minutes after irradiation, the damage to DNA in the cells was measured using phospho-gamma H2AX immunofluorescence assay, similar to that used for example by Fraser et al. (2012). […] The fluorescence was imaged on a confocal fluorescence microscope where the red fluorescence (488+/−10 nm excitation, >505 nm detection) corresponding to DNA double strand breaks could be visualized on the […] DAPI fluorescence background (405+/−10 nm excitation, 460+/−25 nm detection) and the intensity quantified. The red fluorescence intensity counts were integrated over 10-18 cells for each treatment condition. […]

[2] = test system: cells in vitro; details: conjugation to branched peptides (loligomers) with nuclear-targeting sequences; cited from earlier work

Molecule	Mean fluorescence intensity counts ([1]; Cherenkov blocked (blackout material))	Mean fluorescence intensity counts ([1]; Cherenkov unblocked)	reduction of the required dose of photosensitizer by nuclear localization [2]
C1=Cc2nc1c(-c1ccccc1)c1nc(c(-c3ccccc3)c3ccc([nH]3)c(-c3ccccc3)c3ccc([nH]3)c2-c2ccccc2)C=C1 [TPP, tetraphenyl porphyrin]	54.8 +/− 6.0 counts	49.5 +/− 6.7 counts	
chlorine 6			greater than 100 fold
